Results: patent publication US11033539B2, “Compounds of formulas (VII), (VIII), (IX), (XI), (XII), (XIII), and (XIV) as muscarinic receptor 4(M4) antagonists for treating neurological diseases” (Neurocrine Biosciences, Inc., priority 2015, dated 2021)
Where two headings read alike, the source gives them in different places.

Experiments:
[1] = biological target: human M1 receptor (Homo sapiens (Human), UniProt P11229); assay: Radioligand (tritiated N-methylscopolamine) binding assay, M1
Method: (§1) Binding affinity (Ki) of compounds was measured by inhibition of radioligand binding to membranes from CHO cells expressing human M1, M2, M3, M4 and M5 receptors. Membranes were prepared by nitrogen cavitation and differential centrifugation as previously described (Hoare et al., Mol. Pharmacol. 2003 March; 63(3): 751-65). The radioligand employed was tritiated N-methylscopolamine, used at a concentration of 1.5 nM. A dose-response of twelve concentrations of compound was used, ranging from 10 μM to […]. The assay buffer was 50 mM HEPES, 100 mM NaCl, 5 mM MgCl2, 1 mM ethylenediaminetetraacetic acid, pH-adjusted to pH 7.4. Membranes, radioligand and compound were incubated together for 90 minutes at 37° C., in a total volume of 150 μl in a 96-well plate. Receptor-bound radioligand was then collected by harvesting the assay over glass fiber filters pretreated with polyethylenimine to trap the cell membranes, using rapid vacuum filtration. Harvesting and radioactivity counting was conducted as previously described (see, e.g., Hoare et al., Mol. Pharmacol. 2003 63(3):751-65); Erratum at Mol. Pharmacol. 2005 July; 68(1): 260).

[2] = biological target: human M2 receptor (Homo sapiens (Human), UniProt P08172); assay: Radioligand (tritiated N-methylscopolamine) binding assay, M2
Chain of human M2 receptor (P08172 whole entry): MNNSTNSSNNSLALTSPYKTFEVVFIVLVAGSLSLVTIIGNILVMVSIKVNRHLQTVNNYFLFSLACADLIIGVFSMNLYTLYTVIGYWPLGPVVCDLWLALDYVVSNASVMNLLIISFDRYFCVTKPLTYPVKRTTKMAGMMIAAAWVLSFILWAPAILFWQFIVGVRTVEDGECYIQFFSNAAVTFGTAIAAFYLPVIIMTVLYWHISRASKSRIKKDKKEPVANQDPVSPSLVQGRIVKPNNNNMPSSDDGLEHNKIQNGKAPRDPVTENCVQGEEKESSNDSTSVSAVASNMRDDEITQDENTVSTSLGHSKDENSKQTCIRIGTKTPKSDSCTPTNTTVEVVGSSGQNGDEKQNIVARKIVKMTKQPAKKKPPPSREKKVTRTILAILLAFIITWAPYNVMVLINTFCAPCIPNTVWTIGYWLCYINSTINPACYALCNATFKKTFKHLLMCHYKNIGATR
Method: as §1

[3] = biological target: human M5 receptor (Homo sapiens (Human), UniProt P08912); assay: Radioligand (tritiated N-methylscopolamine) binding assay, M5
Chain of human M5 receptor (P08912 whole entry): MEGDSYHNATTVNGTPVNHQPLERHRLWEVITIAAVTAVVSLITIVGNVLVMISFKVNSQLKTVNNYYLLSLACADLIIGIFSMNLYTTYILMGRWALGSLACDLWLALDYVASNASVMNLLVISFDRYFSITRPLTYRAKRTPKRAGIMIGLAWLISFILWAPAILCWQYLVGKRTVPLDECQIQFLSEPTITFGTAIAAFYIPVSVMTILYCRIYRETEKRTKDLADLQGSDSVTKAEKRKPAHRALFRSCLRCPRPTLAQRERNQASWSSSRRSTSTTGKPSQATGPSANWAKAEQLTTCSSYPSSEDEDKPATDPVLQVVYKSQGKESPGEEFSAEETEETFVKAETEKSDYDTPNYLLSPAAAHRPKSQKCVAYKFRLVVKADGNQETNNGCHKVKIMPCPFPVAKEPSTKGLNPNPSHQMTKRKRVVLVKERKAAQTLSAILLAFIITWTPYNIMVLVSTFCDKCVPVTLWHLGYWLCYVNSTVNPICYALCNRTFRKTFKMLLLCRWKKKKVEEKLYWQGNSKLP
Method: as §1

[4] = biological target: human M3 receptor (Homo sapiens (Human), UniProt P20309); assay: Radioligand (tritiated N-methylscopolamine) binding assay, M3; settings: CHO cell membranes expressing human M3; 1.5 nM tritiated N-methylscopolamine; 90 min, 37° C.; read-out: Ki against M3 receptor (Table 21, M3)
Chain of human M3 receptor (P20309 whole entry): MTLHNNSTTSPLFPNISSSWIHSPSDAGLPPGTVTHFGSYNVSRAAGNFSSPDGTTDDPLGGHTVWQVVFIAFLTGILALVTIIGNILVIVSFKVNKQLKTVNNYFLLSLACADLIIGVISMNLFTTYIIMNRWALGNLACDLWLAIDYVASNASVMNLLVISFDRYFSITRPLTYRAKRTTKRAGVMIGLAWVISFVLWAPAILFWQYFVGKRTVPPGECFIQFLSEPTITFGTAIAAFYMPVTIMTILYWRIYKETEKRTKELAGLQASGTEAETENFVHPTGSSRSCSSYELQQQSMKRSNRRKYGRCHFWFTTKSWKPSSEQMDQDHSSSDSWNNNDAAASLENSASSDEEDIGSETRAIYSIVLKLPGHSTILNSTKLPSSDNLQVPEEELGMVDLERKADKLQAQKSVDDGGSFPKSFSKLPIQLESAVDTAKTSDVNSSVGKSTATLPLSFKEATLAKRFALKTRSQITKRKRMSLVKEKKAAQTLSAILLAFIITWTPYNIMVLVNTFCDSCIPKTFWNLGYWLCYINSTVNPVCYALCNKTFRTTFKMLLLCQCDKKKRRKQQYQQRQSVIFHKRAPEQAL
Method: as §1

[5] = biological target: human M4 receptor (Homo sapiens (Human), UniProt P08173); assay: Radioligand (tritiated N-methylscopolamine) binding assay, M4; settings: Ki against the M4 receptor; membranes from CHO cells expressing human M4; tritiated N-methylscopolamine 1.5 nM; read-out: Ki
Chain of human M4 receptor (P08173 whole entry): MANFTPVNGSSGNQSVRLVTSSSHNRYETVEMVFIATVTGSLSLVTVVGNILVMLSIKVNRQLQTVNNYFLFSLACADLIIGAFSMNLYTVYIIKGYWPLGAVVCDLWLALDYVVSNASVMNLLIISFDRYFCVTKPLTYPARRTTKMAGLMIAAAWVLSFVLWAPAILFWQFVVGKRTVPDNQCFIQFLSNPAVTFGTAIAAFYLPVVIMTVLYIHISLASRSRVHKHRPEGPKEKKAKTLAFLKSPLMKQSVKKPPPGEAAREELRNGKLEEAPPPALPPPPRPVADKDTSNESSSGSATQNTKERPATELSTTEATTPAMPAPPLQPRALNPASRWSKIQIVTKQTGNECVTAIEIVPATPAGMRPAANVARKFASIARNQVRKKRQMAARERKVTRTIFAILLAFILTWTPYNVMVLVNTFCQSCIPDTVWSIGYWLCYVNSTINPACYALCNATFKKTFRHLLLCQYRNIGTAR
How it was run: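 Membranes came from recombinant CHO cells expressing human muscarinic subtypes and were incubated with compound and [3H]NMS (1.5 nM) in HEPES/NaCl/MgCl2/EDTA buffer, pH 7.4, at 37° C for 90 min. Twelve-point dose-response (printed 10–[…]). Filter-bound radioactivity was counted and Ki values derived.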

[6] = CHO cell membranes expressing human M1, 1.5 nM tritiated N-methylscopolamine, 90 min, 37° C., read-out: Ki against M1 receptor (Table 21, M1)
[7] = CHO cell membranes expressing human M2, 1.5 nM tritiated N-methylscopolamine, 90 min, 37° C., read-out: Ki against M2 receptor (Table 21, M2)
[8] = CHO cell membranes expressing human M5, 1.5 nM tritiated N-methylscopolamine, 90 min, 37° C., read-out: Ki against M5 receptor (Table 21, M5)

Chain of human M1 receptor (P11229 whole entry): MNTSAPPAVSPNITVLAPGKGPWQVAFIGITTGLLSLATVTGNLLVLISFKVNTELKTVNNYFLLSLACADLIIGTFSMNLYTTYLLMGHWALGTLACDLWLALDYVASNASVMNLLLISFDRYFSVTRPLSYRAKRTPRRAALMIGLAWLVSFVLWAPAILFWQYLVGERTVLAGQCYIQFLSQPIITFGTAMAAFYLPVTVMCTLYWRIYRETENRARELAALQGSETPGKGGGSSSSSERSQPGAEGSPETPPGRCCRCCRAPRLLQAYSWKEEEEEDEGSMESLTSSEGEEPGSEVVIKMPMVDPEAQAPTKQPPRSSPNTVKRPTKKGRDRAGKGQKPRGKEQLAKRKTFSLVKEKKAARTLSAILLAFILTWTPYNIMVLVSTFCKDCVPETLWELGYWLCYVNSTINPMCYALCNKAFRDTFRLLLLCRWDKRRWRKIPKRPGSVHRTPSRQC

| SMILES | Ki [1, 6] [nM] | Ki [2, 7] [nM] | Ki [3, 8] [nM] | Ki [4] [nM] | Ki [5] [nM] | Ki [1] [nM] | Ki [2] [nM] | Ki [3] [nM] |
| --- | --- | --- | --- | --- | --- | --- | --- | --- |
| C[C@@H]1CN(c2cc(F)c(F)c(F)c2)CCN1C(=O)NCCC1CCN(Cc2ccc3[nH]ccc3c2)CC1 [6-1, (2R)-N-{2-[1-(1H-indol-5-ylmethyl)piperidin-4-yl]ethyl}-2-methyl-4-(3,4,5-trifluorophenyl)piperazine-1-carboxamide] | 100 to 1000 | < 10 | 100 to 1000 | 100 to 1000 | < 10 |  |  |  |
| C[C@@H]1CN(c2ccc(Cl)c(F)c2)CCN1C(=O)NCCC1CCN(Cc2ccccc2)CC1 [22-14] | 100 to 1000 | 10 to 100 | 100 to 1000 | 100 to 1000 | < 10 |  |  |  |
| C[C@@H]1CN(c2ncc(C(F)(F)F)cc2F)CCN1C(=O)NCCC1CCN(Cc2ccccc2)CC1 [3-10, (2R)-N-[2-(1-benzylpiperidin-4-yl)ethyl]-4-[3-fluoro-5-(trifluoromethyl)pyridin-2-yl]-2-methylpiperazine-1-carboxamide] | 100 to 1000 | 10 to 100 | > 1000 | 100 to 1000 | < 10 |  |  |  |
| CC1CN(c2ccc(OC(F)(F)F)cc2)CCC1C(=O)NCCC1CCN(Cc2ccccc2)CC1 (stereo not shown) [10-6, N-[2-(1-benzylpiperidin-4-yl)ethyl]-3-methyl-1-[4-(trifluoromethoxy)phenyl]piperidine-4-carboxamide] | 100 to 1000 | 100 to 1000 | > 1000 | > 1000 | < 10 |  |  |  |
| O=C(NCCC1CCN(Cc2ccccc2)CC1)C1CCN(c2ccc(OC(F)(F)F)c(F)c2)CC1 [10-8, N-[2-(1-benzylpiperidin-4-yl)ethyl]-1-[3-fluoro-4-(trifluoromethoxy)phenyl]piperidine-4-carboxamide] | > 1000 | 100 to 1000 | > 1000 | > 1000 | < 10 |  |  |  |
| C[C@@H]1CN(c2ncc(C#N)cn2)C[C@H](C)N1C(=O)NCCC1CCN(Cc2ccc3[nH]ccc3c2)CC1 [6-47, (2R,6S)-4-(5-cyanopyrimidin-2-yl)-N-{2-[1-(1H-indol-5-ylmethyl)-piperidin-4-yl]ethyl}-2,6-dimethylpiperazine-1-carboxamide] | 100 to 1000 | < 10 | 100 to 1000 | 100 to 1000 | < 10 |  |  |  |
| C[C@@H]1CN(c2cc(F)c(C#N)c(F)c2)CCN1C(=O)NCCC1CCN(Cc2ccccc2)CC1 [22-12] | > 1000 | 10 to 100 | 100 to 1000 | > 1000 | < 10 |  |  |  |
| C[C@@H]1CN(c2ccc(C#N)c(C(F)(F)F)c2)CCN1C(=O)NCCC1CCN(Cc2ccccc2)CC1 [22-31] |  |  |  | > 1000 | < 10 | 10 to 100 | 10 to 100 | 100 to 1000 |
| COc1cc(C#N)cc(N2CCC(C(=O)NCCC3CCN(Cc4ccccc4)CC3)CC2)c1 [10-54, N-[2-(1-benzylpiperidin-4-yl)ethyl]-1-(3-cyano-5-methoxyphenyl)piperidine-4-carboxamide] | 100 to 1000 | 10 to 100 | > 1000 | > 1000 | < 10 |  |  |  |
| O=C(NCCC1CCN(Cc2ccccc2)CC1)C1CCN(c2cc(F)c(F)c(F)c2)CC1 [10-7, N-[2-(1-benzylpiperidin-4-yl)ethyl]-1-(3,4,5-trifluorophenyl)piperidine-4-carboxamide] | > 1000 | 100 to 1000 | > 1000 | > 1000 | < 10 |  |  |  |
| C[C@H]1CN(c2ccc(OC(F)(F)F)cc2)CCN1C(=O)NCCC1CCN(Cc2ccccc2)CC1 [4-10, (2S)-N-[2-(1-benzylpiperidin-4-yl)ethyl]-2-methyl-4-[4-(trifluoromethoxy)phenyl]piperazine-1-carboxamide] | 100 to 1000 | 10 to 100 | 100 to 1000 | 100 to 1000 | < 10 |  |  |  |
| C[C@H]1CN(c2ccc(C#N)cn2)CCC1C(=O)NCCC1CCN(Cc2ccccc2)CC1 (stereo partly drawn) [10-79, (3R)-N-[2-(1-benzylpiperidin-4-yl)ethyl]-1-(5-cyanopyridin-2-yl)-3-methylpiperidine-4-carboxamide] | 100 to 1000 | 10 to 100 | 100 to 1000 | > 1000 | < 10 |  |  |  |
| C[C@@H]1CN(c2ncc(C#N)cn2)C[C@H](C)N1C(=O)NCCC1CCN(Cc2ccc(O)cc2)CC1 [6-42, (2R,6S)-4-(5-cyanopyrimidin-2-yl)-N-(2-{1-[(4-hydroxyphenyl)-methyl]piperidin-4-yl}ethyl)-2,6-dimethylpiperazine-1-carboxamide] | > 1000 | 10 to 100 | > 1000 | 100 to 1000 | < 10 |  |  |  |
| COc1cc(N2CCC(C(=O)NCCC3CCN(Cc4ccccc4)CC3)CC2)ccc1OC(F)(F)F [10-10, N-[2-(1-benzylpiperidin-4-yl)ethyl]-1-[3-methoxy-4-(trifluoromethoxy)phenyl]piperidine-4-carboxamide] | 100 to 1000 | 100 to 1000 | > 1000 | > 1000 | < 10 |  |  |  |
| O=C(NCCC1CCN(Cc2ccccc2)CC1)C1CCN(c2ccc3c(c2)OC(F)(F)O3)CC1 [10-5, N-[2-(1-benzylpiperidin-4-yl)ethyl]-1-(2,2-difluoro-2H-1,3-benzodioxol-5-yl)piperidine-4-carboxamide] | 100 to 1000 | 10 to 100 | > 1000 | > 1000 | < 10 |  |  |  |
| C[C@@H]1CN(C(=O)NCCC2CCN(Cc3ccccc3)CC2)CCN1c1ccc(OC(F)(F)F)cc1 [4-18, (3R)-N-[2-(1-benzylpiperidin-4-yl)ethyl]-3-methyl-4-[4-(trifluoromethoxy)phenyl]piperazine-1-carboxamide] | > 1000 | 100 to 1000 | > 1000 | > 1000 | < 10 |  |  |  |
| C[C@@H]1CN(c2ncc(Cl)c(N)n2)CCN1C(=O)NCCC1CCN(Cc2ccccc2)CC1 [5-32, (2R)-4-(4-amino-5-chloropyrimidin-2-yl)-N-[2-(1-benzylpiperidin-4-yl)ethyl]-2-methylpiperazine-1-carboxamide] | > 1000 | 10 to 100 | > 1000 | > 1000 | < 10 |  |  |  |
| C[C@H]1CN(C(=O)NCCC2CCN(Cc3ccccc3)CC2)CCN1c1cc(F)c(F)c(F)c1 [4-71, (3S)-N-[2-(1-benzylpiperidin-4-yl)ethyl]-3-methyl-4-(3,4,5-trifluorophenyl)piperazine-1-carboxamide] | 100 to 1000 | 100 to 1000 | > 1000 | > 1000 | < 10 |  |  |  |
| C[C@@H]1CN(c2ccc(F)c(C#N)c2)CCN1C(=O)NCCC1(O)CCN(Cc2ccccc2)CC1 [7-11, (2R)-N-[2-(1-benzyl-4-hydroxypiperidin-4-yl)ethyl]-4-(3-cyano-4-fluorophenyl)-2-methylpiperazine-1-carboxamide] | > 1000 | > 1000 | > 1000 | > 1000 | < 10 |  |  |  |
| C[C@@H]1CN(C(=O)NCCC2CCN(Cc3ccccc3)CC2)CCN1c1ccc(OC(F)(F)F)c(F)c1 [4-22, (3R)-N-[2-(1-benzylpiperidin-4-yl)ethyl]-4-[3-fluoro-4-(trifluoromethoxy)phenyl]-3-methylpiperazine-1-carboxamide] | > 1000 | 100 to 1000 | 100 to 1000 | > 1000 | < 10 |  |  |  |
| C[C@@H]1CN(c2ncc(C#N)cn2)C[C@H](C)N1C(=O)NCCC1CCN(Cc2ccc(F)cc2)CC1 [6-48, (2R,6S)-4-(5-cyanopyrimidin-2-yl)-N-(2-{1-[(4-fluorophenyl)methyl]-piperidin-4-yl}ethyl)-2,6-dimethylpiperazine-1-carboxamide] | > 1000 | 10 to 100 | > 1000 | > 1000 | < 10 |  |  |  |
| C[C@@H]1CN(c2ncc(Br)cn2)CCN1C(=O)NCCC1CCN(Cc2ccccc2)CC1 [5-31, (2R)-N-[2-(1-benzylpiperidin-4-yl)ethyl]-4-(5-bromopyrimidin-2-yl)-2-methylpiperazine-1-carboxamide] | 10 to 100 | < 10 | 100 to 1000 | 10 to 100 | < 10 |  |  |  |
| N#Cc1cc(N2CCC(C(=O)NCCC3CCN(Cc4ccccc4)CC3)CC2)ccc1F [9-73, N-[2-(1-benzylpiperidin-4-yl)ethyl]-1-(3-cyano-4-fluorophenyl)piperidine-4-carboxamide] | > 1000 | 100 to 1000 | > 1000 | > 1000 | < 10 |  |  |  |
